From PMC7563863, “Quantification of Boron Compound Concentration for BNCT Using Positron Emission Tomography” (Cells, 2020)

Tests used:
[1] = Estimated concentration in the blood after injection; format: in vivo; conditions: rat
Protocol: The initial concentration of NaBF4 in the blood after injection of 110 mg/kg in the rat is about 16 mM, but as it can be seen from Figure 3, it is expected to drop fast to about 25% at 90 min—that is, to 4 mM. BPA is injected at doses of 500 mg/kg, which in rats, results in an initial concentration in the blood of 37 mM. The transporter of BPA is L-type amino acid transporter (LAT1), which for the most similar compound, phenylalanine has an IC50 of about 60 µM [20]. This is a […] of magnitude higher concentration in the blood for phenylalanine, and BPA still allows reaching therapeutic boron concentrations in the tumor.

[2] = Calculation of boron concentration in thyroid from PET activity concentration and production data; format: in vivo, rat
Excerpt: As injection solution of the [^18F]NaBF4 tracer contains the majority of unlabeled NaBF4; from the NaBF4 molar concentration in the synthesis solution, we could know the labeled to unlabeled tracer compound concentration ratio at the beginning of the PET study. […] The boron concentration is known only with the spatial resolution of the PET image, which in the Mosaic scanner case is about 2.3 mm. The microscopic details of the boron concentration were inferred from NIS immunofluorescence, assuming that the BF4^− concentration is only significant in NIS-containing cells.
Briefly, at the radiotracer production stage, the mass of NaBF4, Milli-Q water, and activity and volume of the [^18F]F^- Milli-Q water solution arriving from the cyclotron are known. Correcting for ^18F decay during the production and time needed for injection, with the known volume and activity of the produced and injected [^18F]NaBF4 tracer, we can calculate the amount of NaBF4 left from the production stage in the tissue from the activity concentration expressed initially as maximum local value of standard uptake value (SUVmax), then recalculated to kBq/mL and, then, to the molar concentration of ^18F at the beginning of the PET study.
To calculate the boron concentration, we start from calculating the ^18F molar concentration in the product to be injected. At the end of synthesis (EOS, decay-corrected to PET study start), we received 4.3 GBq of [^18F]NaBF4 in 2 mL of saline. As the activity concentration A is A=N/τ , where N is the number of ^18F atoms and τ=t1/2/ln(2) , t1/2 of ^18F being 109.7 min expressed in seconds, and diluted in 25.9 mL of Milli-Q water, we obtained 33.9 nM of [^18F]NaBF4 at the EOS and 351 µM of unlabeled NaBF4. We can calculate the molar concentration in the hyperplasia maximum from the maximum of the curve in Figure 3: 2.3 MBq/mL. […] Dividing the calculated concentration of [^18F]NaBF4 36.8 pM by 9.7 × 10^−5, we receive, therefore, a 381 nM boron concentration, which is […] of the fraction of required 2 mM ^10B concentration for BNCT treatment.

NIS = system: NIS; parameters: method as in PMID 21085047; conditions: cited from earlier work
thyroid gland = assay: [^18F]FDG PET/CT of the thyroid gland; format: in vivo, rat
Protocol: PET imaging was carried out in a Mosaic microPET scanner (Philips, Andover, MA, USA) followed by a CT scan in NanoCT (Bioscan/Mediso, Budapest, Hungary). Briefly, animals were anesthetized with isoflurane. A catheter was placed in the tail vein. A radiotracer (41 MBq) was injected with a maximum limit of 5 mL/kg in a bolus injection. In dynamic studies, this was done already in the PET scanner on a heated animal bed (Équipement Vétérinaire MINERVE, Esternay, France). For static studies, animals were awakened and let up for 45-min radiotracer uptake. Then, the animal was anesthetized again and placed in the heated bed of the PET scanner. The dynamic scans were of 90 min centered in the thyroids; the static ones were three beds of 10 cm longitudinal lengths starting from the head towards the tail. Each bed position was scanned for 15 min. CT scans were acquired in 45 kVp with 177 µA at 500 ms exposition and 240 projections per rotation.
PET images were reconstructed using an iterative method with decay, scatter, and random corrections without attenuation correction. […] CT images were reconstructed using the filtered back-projection method with an exact cone-beam and with a Shepp Logan 98% filter, giving a 0.2 mm uniform pixel size. […]

[3] = molecular target: T1, sodium-iodine symporter (NIS) in thyroids (Rattus norvegicus, UniProt Q63008); assay: Two-tissue compartment kinetic modeling of the tracer in the thyroid VOI (PMOD PKIN); format: in vivo; conditions: two-tissue compartment model, hyperplastic thyroid
T1 construct: It was injected into the tail veins of rats; from tissue; host or cells: thyroid (hyperplastic, perchlorate-treated) of living Wistar rats
T1 sequence (Q63008 1-618): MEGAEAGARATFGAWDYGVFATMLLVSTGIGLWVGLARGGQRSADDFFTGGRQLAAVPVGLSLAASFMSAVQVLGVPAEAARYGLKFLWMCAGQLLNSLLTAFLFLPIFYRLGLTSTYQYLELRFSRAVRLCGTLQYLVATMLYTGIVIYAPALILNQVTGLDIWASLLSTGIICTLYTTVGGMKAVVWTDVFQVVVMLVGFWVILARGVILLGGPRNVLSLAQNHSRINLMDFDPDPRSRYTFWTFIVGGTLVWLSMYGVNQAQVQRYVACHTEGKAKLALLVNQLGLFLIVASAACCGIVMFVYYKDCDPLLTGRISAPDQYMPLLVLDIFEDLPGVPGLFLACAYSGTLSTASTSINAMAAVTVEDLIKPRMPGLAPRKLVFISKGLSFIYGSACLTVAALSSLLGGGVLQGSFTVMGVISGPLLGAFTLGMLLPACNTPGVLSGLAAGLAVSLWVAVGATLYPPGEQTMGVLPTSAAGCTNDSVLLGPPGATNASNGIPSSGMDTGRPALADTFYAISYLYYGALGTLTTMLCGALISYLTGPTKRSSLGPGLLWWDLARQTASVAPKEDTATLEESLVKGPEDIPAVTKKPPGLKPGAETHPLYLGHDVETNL
Excerpt: The kinetic modeling of the tracer in VOIs was done using two tissue compartment models shown in Equation (1). Cp is the activity concentration of the tracer in the plasma, C1 and C2 are concentrations in two compartments, k are the kinetic constants, and t is time. The kinetic modeling was done in the PMOD module PKIN using full blood as the input function, with linear interpolation between experimental points taken from the dynamic image of the left ventricle of the heart.
(1) dC2(t)/dt=k3C1(t)−k4C2(t)dC1(t)/dt=K1Cp(t)−(k2 + k3)C1(t) + k4C2(t)

[4] = molecular target: T1, sodium-iodine symporter (NIS) in thyroids; assay: Dynamic [^18F]NaBF4 PET/CT of the hyperplastic thyroid, time-activity curve; format: in vivo
Protocol: Female Wistar rats, aged 16–17 weeks old and weighing 200–220 g at the study starting moment, were kept in pathogen-free cages at the animal facilities of the School of Medicine (University of Seville, Seville, Spain) under controlled laboratory conditions (temperature 20 ± 2 °C, humidity 40–50%, lighting regimen of 12 light/12 dark hours). Animals were fed a normal laboratory diet (Teklad diet, Envigo, Cambridgeshire, UK) and fresh tap water ad libitum. The study was approved by the Ethical Committee of the Faculty of Medicine, University of Seville. Animal handling was conducted following the Guide for the Care and Use of Laboratory Animals. Rats were divided into two equal groups: the control group and the treated group. Animals from the treated group received 1% potassium perchlorate (w/v) in the drinking water, ad libitum, for […]. All experiments were carried with the approval of the ethics committee of the University of Seville.
PET imaging was carried out in a Mosaic microPET scanner (Philips, Andover, MA, USA) followed by a CT scan in NanoCT (Bioscan/Mediso, Budapest, Hungary). Briefly, animals were anesthetized with isoflurane. A catheter was placed in the tail vein. A radiotracer (41 MBq) was injected with a maximum limit of 5 mL/kg in a bolus injection. […]

[5] = molecular target: T1, sodium-iodine symporter (NIS) in thyroids; parameters: method as in PMID 20577737; conditions: cited from earlier work
[6] = system: L-type amino acid transporter (LAT1); parameters: method as in PMID 30048132; conditions: cited from earlier work

Which results are given for `F[B-](F)(F)F.[Na+]` [NaBF4]?
concentration in the blood at 90 min ([1]; 110 mg/kg, expected): 4000 µM; concentration in the blood at 90 min as fraction of initial ([1]; expected from Figure 3 blood curve): about 25%; fraction of the required 2 mM ^10B concentration reached ([2]; 381 nM boron in hyperplastic thyroid): 19 × 10^−5; boron concentration in thyroid with hyperplasia ([2]; at peak, after 53 nmol (21 µg/kg) NaBF4 injected): 381 nM; IC50 (NIS): 1.6 µM

Which “uptake in control and hyperplastic thyroid” value (thyroid gland; control thyroid and thyroid with hyperplasia) does the source give for `OC[C@H]1OC(O)[C@H]([18F])[C@@H](O)[C@@H]1O` (stereo partly drawn) [[^18F]FDG, [^18F]fluorodeoxyglucose] here?
The value was “neither the control nor thyroid with hyperplasia show an abnormal uptake”.

What about the “SUVmax in thyroid tumor” value (thyroid gland; thyroid tumor) of the same compound?
Its value is “two”.

What does the source list for `F[B-](F)(F)F.[Na+]` [[^18F]NaBF4]?
Flux [3]: 0.28; K1 [3]: 1.89; Kl/k2 [3]: 3.60; Vs (distribution volume of the specific binding) [3]: 3.96; Vt (distribution volume) [3]: 7.56; k2 [3]: 0.52; k3 [3]: 0.09; k3/k4 (nondisplaceable binding potential, BPND) [3]: 1.1; k4 [3]: 0.08; capture in bones ([4]; PET): no capture in bones; peak activity concentration in thyroid ([4]; hyperplastic thyroid, about 17 min after injection): 2.3 MBq/mL; molar concentration of [^18F]NaBF4 in thyroid at peak ([2]; hyperplasia maximum, from 2.3 MBq/mL): 36.8 pM; stability in vivo [5]: stable in vivo

With `N[C@@H](Cc1ccccc1)C(=O)O` [phenylalanine] as the compound, how does the IC50 [6] read?
The IC50 was roughly 60 µM.
